Patent US7960397B2, “6,9-disubstituted purine derivatives and their use as cosmetics and cosmetic compositions” (Institute of Experimental Botany, Academy of Sciences of …, priority 2007, dated 2011)

Legend:
[1] = tested on: human diploid fibroblasts (HCA cells, HCA20, HCA40, HCA60); experiment: Senescent cells (β-galactosidase staining) in culture of human fibroblasts; type: cell-based; details: for SENESCENT CELLS (%) HCA20: human fibroblasts passage 20 (HCA20); for SENESCENT CELLS (%) HCA40: human fibroblasts passage 40 (HCA40); for SENESCENT CELLS (%) HCA60: human fibroblasts passage 60 (HCA60)
In short: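 Fibroblasts taken at passages 20, 40 and 60 were washed and fixed for 5 min at room temperature in 2% formaldehyde/0.2% glutaraldehyde in PBS. After PBS washes, cells were incubated at 37 °C for β-galactosidase staining.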

[2] = tested on: Amaranthus caudatus cotyledon/hypocotyl explants; experiment: Amaranthus bioassay (betacyanin content); set-up: species or system Amaranthus caudatus var. atropurpurea; details: for concentration with highest activity: betacyanin content after 48 h incubation, tested 10^−8 M to 10^−4 M; for Activity (%) [10^−5 mol · l^−1 BAP = 100%]: betacyanin content at the concentration with highest activity, 10^−5 M BAP = 100%
In short: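 Amaranthus caudatus explants (cotyledons plus hypocotyl) from 72 h dark-grown seedlings were incubated in darkness on medium with 10 mmol Na2HPO4–KH2PO4 pH 6.8, 5 mmol tyrosine and test compound; stock was 10^−3 M in DMSO/water. Betacyanin was measured as A537−A620 and activity expressed relative to 10^−5 M BAP (100%).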

[3] = tested on: cytokinin-dependent tobacco callus Nicotiana tabacum L. cv. Wisconsin 38; experiment: Cytokinin activity in tobacco callus bioassay; type: cell-based; details: for concentration with highest activity: growth of tobacco callus, four weeks of cultivation, tested 10^−8 M to 10^−4 M; for Activity (%) [10^−5 mol · l^−1 BAP = 100%]: increase of fresh callus weight at the concentration with highest activity, 10^−5 M BAP = 100%
excised wheat leaf tips = experiment: Antisenescence test, retention of chlorophyll in excised wheat leaf tips; set-up: species or system Triticum aestivum cv. Hereward; details: for activity (%) [10^−4 mol · l^−1 BAP = 100%]: retention of chlorophyll in excised wheat leaf tips at the concentration with highest activity, 10 replicate determinations; for concentration with highest activity: retention of chlorophyll in excised wheat leaf tips, tested range 10^−8 M to 10^−4 M, 96 h in the dark at 25° C.
In short: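 Winter wheat seedlings (Triticum aestivum cv. Hereward) were raised on vermiculite with Knop's solution at 25° C. for 7 days. Tips of the first leaf, 35 mm long (five tips, 100 mg combined), stood in […] of test solution in microtiter wells. After 96 h in the dark at 25° C., chlorophyll was extracted in 80% ethanol at 80° C. and read at 665 nm. Activity is relative to 10^−4 M BAP (100%).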

[4] = tested on: breast carcinoma cell line MCF-7; experiment: In vitro cytotoxicity, Calcein AM assay; details: read-out: GI50 MCF7; MCF7, 72 hours, Calcein AM
Procedure: (§1) Because only metabolically active cells cleave Calcein AM, these assays detect viable cells exclusively. The quantity of reduced Calcein AM corresponds to the number of vital cells in the culture.
(§2) The cells were maintained in Nunc/Corning 80 cm^2 plastic tissue culture flasks and cultured in cell culture medium (DMEM with 5 g/l glucose, 2 mM glutamine, 100 U/ml penicillin, 100 mg/ml streptomycin, 10% fetal calf serum and sodium bicarbonate).
(§3) The cell suspensions that were prepared and diluted according to the particular cell type and the expected target cell density (2,500-30,000 cells per well based on cell growth characteristics) were added by pipette (80 ml) into 96-well microtiter plates. Inoculates were allowed a pre-incubation period of 24 hours at 37° C. and 5% CO2 for stabilization. Four-fold dilutions of the intended test concentration were added at time zero in 20 ml aliquots to the microtiter plate wells. Usually, the compound tested was evaluated at six 4-fold dilutions. […] All drug concentrations were examined in duplicate. Incubations of cells with the tested compounds lasted for 72 hours at 37° C., in a 5% CO2 atmosphere and 100% humidity. At the end of the incubation period, the cells were assayed by using Calcein AM. Ten microliters of the stock solution were pipetted into each well and incubated for 1 hour. Fluorescence (FD) was measured with the Labsystem FIA Reader Fluoroscan Ascent (UK).

human osteosarcoma HOS = experiment: In vitro cytotoxicity, Calcein AM assay; details: read-out: GI50 HOS; HOS, 72 hours, Calcein AM
Procedure: as §1, §2, §3

[5] = tested on: human myeloid leukemia K-562; experiment: In vitro cytotoxicity, Calcein AM assay; details: read-out: GI50 K-562; K-562, 72 hours, Calcein AM
Procedure: as §1, §2, §3

[6] = tested on: Human T-lymphoblastic leukemia cell line CEM; experiment: In vitro cytotoxicity, Calcein AM assay; details: read-out: GI50 CEM; CEM, 72 hours, Calcein AM
Procedure: as §1, §2, §3

mouse fibroblasts NIH3T3 = experiment: In vitro cytotoxicity, Calcein AM assay; details: read-out: GI50 NIH-3T3; NIH-3T3, 72 hours, Calcein AM
Procedure: as §1, §2, §3

[7] = tested on: promyelocytic HL-60 leukemia; experiment: In vitro cytotoxicity, Calcein AM assay; details: read-out: GI50 HL60; HL60, 72 hours, Calcein AM
Procedure: as §1, §2, §3

| SMILES | SENESCENT CELLS (%) HCA20 [1] [%] | SENESCENT CELLS (%) HCA40 [1] [%] | SENESCENT CELLS (%) HCA60 [1] [%] | concentration with highest activity [2] | Activity (%) [10^−5 mol · l^−1 BAP = 100%] [2] [%] | concentration with highest activity [3] | Activity (%) [10^−5 mol · l^−1 BAP = 100%] [3] [%] | activity (%) [10^−4 mol · l^−1 BAP = 100%] (excised wheat leaf tips) [%] | concentration with highest activity (excised wheat leaf tips) | GI50 [4] [µM] | GI50 (human osteosarcoma HOS) [µM] | GI50 [5] [µM] | GI50 [6] [µM] | GI50 (mouse fibroblasts NIH3T3) [µM] | GI50 [7] [µM] |
| --- | --- | --- | --- | --- | --- | --- | --- | --- | --- | --- | --- | --- | --- | --- | --- |
| Oc1coc(CNc2ncnc3c2ncn3C2CCCCO2)c1 (stereo not shown) | 4 | 4 | 16 | 10^−4 mol · l^−1 | 115 | 10^−6 mol · l^−1 | 91 | 101 | 10^−4 mol · l^−1 | > 167 | > 167 | > 167 |  |  |  |
| Oc1ccccc1CNc1ncnc2[nH]cnc12 [2-hydroxybenzylamino / H, reference compound] |  |  |  | 10^−4 mol · l^−1 | 32.6 | 10^−5 mol · l^−1 | 72.3 | 22.4 | 10^−4 mol · l^−1 | > 167 | > 167 | > 167 | 69.2 | > 167 | 78 |
| Oc1cccc(CNc2ncnc3[nH]cnc23)c1 [3-hydroxybenzylamino / H, reference compound] |  |  |  | 10^−5 mol · l^−1 | 99 | 10^−5 mol · l^−1 | 116 | 105.9 | 10^−4 mol · l^−1 | > 167 | > 167 | 128 | 90.1 | > 167 | 79.2 |
| Cc1cc(Nc2ncnc3c2ncn3C2CCCCO2)ccc1O (stereo not shown) [4-hydroxy-3-methylanilino / tetrahydropyran-2-yl] | 3 | 4 | 19 | 10^−4 mol · l^−1 | 15 | 10^−5 mol · l^−1 | 12 | 7 | 10^−4 mol · l^−1 | > 167 | > 167 |  |  | > 167 | > 167 |
| Cc1cc(CNc2ncnc3c2ncn3C2CCCCO2)ccc1O (stereo not shown) [4-hydroxy-3-methylbenzylamino / tetrahydropyran-2-yl] | 4 | 6 | 22 | 10^−4 mol · l^−1 | 7 | 10^−5 mol · l^−1 | 4 | 9 | 10^−4 mol · l^−1 | > 167 | > 167 |  | > 167 | > 167 | > 167 |
| Cc1cc(Nc2ncnc3c2ncn3C2CCCCO2)ccc1O (stereo not shown) [4-hydroxy-5-methylanilino / tetrahydropyran-2-yl] | 4 | 4 | 18 | 10^−4 mol · l^−1 | 17 | 10^−5 mol · l^−1 | 10 | 10 | 10^−4 mol · l^−1 | > 167 | > 167 |  |  | > 167 | > 167 |
